This is an account of results in BindingDB's records for patent US20230365537 (Oric Pharmaceuticals, 2023).

Each structure is given as a SMILES string. Values joined by “and” are separate entries in the source; they are usually repeats but may differ in a detail not shown here. Identical values can stand only once.

Assay [1] concerns the target T1, Serine/threonine-protein kinase PLK4 (Homo sapiens, UniProt O00444).
T1 sequence (O00444 whole entry): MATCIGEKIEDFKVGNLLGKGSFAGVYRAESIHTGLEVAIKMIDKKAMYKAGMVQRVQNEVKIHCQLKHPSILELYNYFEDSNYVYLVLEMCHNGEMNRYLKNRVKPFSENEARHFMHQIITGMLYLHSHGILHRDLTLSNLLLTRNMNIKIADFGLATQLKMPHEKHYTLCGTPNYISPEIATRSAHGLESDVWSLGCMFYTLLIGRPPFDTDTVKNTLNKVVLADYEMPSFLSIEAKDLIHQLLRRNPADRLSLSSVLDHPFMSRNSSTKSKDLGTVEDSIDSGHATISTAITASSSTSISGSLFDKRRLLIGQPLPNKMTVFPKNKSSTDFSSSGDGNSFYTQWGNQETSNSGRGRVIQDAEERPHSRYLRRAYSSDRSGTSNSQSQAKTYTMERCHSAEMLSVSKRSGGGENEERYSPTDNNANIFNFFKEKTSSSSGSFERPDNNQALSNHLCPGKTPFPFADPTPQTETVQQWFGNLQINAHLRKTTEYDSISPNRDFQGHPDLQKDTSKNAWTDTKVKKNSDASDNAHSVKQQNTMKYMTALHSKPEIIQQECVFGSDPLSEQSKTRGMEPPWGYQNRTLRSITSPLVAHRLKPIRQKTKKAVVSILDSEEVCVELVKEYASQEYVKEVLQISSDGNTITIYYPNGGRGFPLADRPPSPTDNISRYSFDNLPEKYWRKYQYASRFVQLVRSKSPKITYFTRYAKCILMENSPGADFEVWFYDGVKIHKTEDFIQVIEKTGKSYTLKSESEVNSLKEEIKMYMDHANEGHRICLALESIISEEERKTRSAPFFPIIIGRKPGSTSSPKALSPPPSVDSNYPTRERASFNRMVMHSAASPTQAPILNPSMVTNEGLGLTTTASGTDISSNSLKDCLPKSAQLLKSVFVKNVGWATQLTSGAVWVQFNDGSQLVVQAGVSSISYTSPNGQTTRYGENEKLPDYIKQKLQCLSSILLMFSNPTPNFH
Description: PLK4 Biochemical Assay. The protocol: (§1) Activity of human recombinant PLK4 (ThermoFisher, cat #PV6396) was measured by quantification of adenosine diphosphate (ADP) using the ADP-Glo Kinase Assay Kit (Promega, cat #V9102). […] 5 µL of 1.0 nM PLK4 protein in assay buffer (50 mM HEPES, pH 7.5, 0.01% Brij-35, 0.01% BSA, 10 mM MgCl2, 1 mM EGTA, 1 mM DTT) was added to the plates. Test compounds and PLK4 were incubated for 15 minutes at room temperature (RT). […] Reactions were stopped and the remaining ATP depleted by adding 10 µL of ADP-Glo reagent (Promega, cat#V912B) and incubating for 40 minutes at RT. The simultaneous conversion of the remaining ADP to ATP and measurement of the newly synthesized ATP was achieved by addition of 20 µL Kinase Detection reagent (Promega, cat #V914B), incubation for 30 min at RT, and luminescence detection using the EnVision plate reader (PerkinElmer). […] The IC50 values reported in Table 2 were determined using four parameter non-linear regression curve fit.

A further assay addresses T2, Aurora kinase A (Homo sapiens, UniProt O14965).
T2 sequence (O14965 whole entry): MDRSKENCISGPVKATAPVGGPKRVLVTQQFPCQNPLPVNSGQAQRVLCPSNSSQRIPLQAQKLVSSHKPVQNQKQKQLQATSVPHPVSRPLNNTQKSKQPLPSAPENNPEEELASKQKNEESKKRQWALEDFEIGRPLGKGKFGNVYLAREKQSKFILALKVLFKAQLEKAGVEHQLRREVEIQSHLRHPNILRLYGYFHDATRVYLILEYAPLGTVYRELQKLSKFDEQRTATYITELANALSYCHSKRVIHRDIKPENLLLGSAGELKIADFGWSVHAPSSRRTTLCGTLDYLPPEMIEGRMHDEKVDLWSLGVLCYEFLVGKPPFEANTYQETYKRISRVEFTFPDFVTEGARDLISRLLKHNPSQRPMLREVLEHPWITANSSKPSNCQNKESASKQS
Description: Aurora A Kinase Biochemical Assay. The protocol: as §1, with “Aurora A” for “PLK4”, “#PR5935A)” for “#PV6396)”, “5.0” for “1.0”, “Aurora A” for “PLK4 protein”, “10uL” for “10 µL”

For the next assay, the target named is Aurora kinase B (Homo sapiens, UniProt Q96GD4). Description: Aurora B Kinase Biochemical Assay. The protocol: as §1, with “Aurora B” for “PLK4”, “#PR9210B)” for “#PV6396)”, “20” for “1.0”, “Aurora B” for “PLK4 protein”, “10uL” for “10 µL”, “parameter” for “parameter non-linear regression curve fit.”
Aurora kinase B, sequence (Q96GD4 whole entry): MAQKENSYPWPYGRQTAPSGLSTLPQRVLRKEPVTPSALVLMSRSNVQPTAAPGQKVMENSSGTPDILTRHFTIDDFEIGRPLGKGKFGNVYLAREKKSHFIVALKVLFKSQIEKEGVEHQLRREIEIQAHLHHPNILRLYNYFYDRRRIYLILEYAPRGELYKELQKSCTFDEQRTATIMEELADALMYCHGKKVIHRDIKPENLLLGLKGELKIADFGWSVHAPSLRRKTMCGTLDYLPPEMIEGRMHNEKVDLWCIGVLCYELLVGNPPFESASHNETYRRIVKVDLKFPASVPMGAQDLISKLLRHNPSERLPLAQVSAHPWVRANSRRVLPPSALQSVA

A word on the IC50: it is the point on the concentration scale where inhibition reaches its midpoint. For `COc1ccc2c(c1)[C@]1(C[C@H]1c1ccc3c(Nc4cc(N5CCN(C)C5=O)cnc4OC)n[nH]c3c1)C(=O)N2` [US20230365537, Example 221], the IC50 in assay [1] amounted to 2.8 nM.

`COc1ccc2c(c1)[C@]1(C[C@H]1c1ccc3c(Nc4cc(S(=O)(=O)C5CCOCC5)ccc4OC)n[nH]c3c1)C(=O)N2` [US20230365537, Example 224]: the half-inhibitory concentration (IC50) in assay [1] was determined as 4.02 nM.

Consider `COc1ccc2c(c1)[C@]1(C[C@H]1c1ccc3c(Nc4ccc(S(C)(=O)=O)nc4OC)n[nH]c3c1)C(=O)N2` [US20230365537, Example 168], for which the IC50 is 1860 nM and 2030 nM on Aurora kinase A; 521 nM and 1060 nM against Aurora kinase B.
